Laboratory results taken from patent US8901295B2 (Institut National de la Sante et de la Recherche Medicale …, priority 2009, dated 2014).
Like-named read-outs stand apart in the source and are kept apart here.

Assays:
Cyclophilin B (CypB) = Cyclophilin B (CypB) (Homo sapiens (Human), UniProt P23284); assay: Cyclophilin PPIase enzymatic assay (chymotrypsin coupled), CypB; assay type: biochemical; conditions: for Inhibition (%): activity test at 100 μM on CypB; for IC50: CypB
Protocol: (§1) Cyclophilin A, B protein carrying a hexahistidine tag (His-Tag) at the C-terminus, were expressed in Escherichia coli and purified. Briefly, cultures of C41(DE3) cells were grown at 37° C. for ˜1 h until the culture reached an optical density of 0.6 at 600 nm, and induced with 1 mM isopropyl β-D-thiogalactoside for 4 h at 37° C. or overnight at 22° C. for cylophilin A and cyclophilin B, respectively. Cell pellets (1 L) were resuspended in a lysis buffer (20 mM NaH2PO4 (pH 7.8), 300 mM NaCl, 7 mM β-mercaptoethanol, 1 mg/ml lysozyme, 0.1 U/μl Desoxyribonuclease and complete protease inhibitor tablets (Roche)). The sonicated cell lysates were clarified by centrifugation at 10 000 g for 45 min at 4° C., chromatographed on a Ni-NTA column and washed with buffer: (20 mM NaH2PO4 (pH7.8), 300 mM NaCl, 50 mM imidazole, 7 mM β-mercaptoethanol, 10% glycerol). The bound protein was eluted in 1 ml fractions with buffer: (20 mM NaH2PO4 (pH7.8), 300 mM NaCl, 250 mM imidazole, 7 mM β-mercaptoethanol, 10% glycerol) and monitored by the Bradford colorimetric assay. The purity of each cyclophilin was determined by Coomassie-stained SDS-PAGE analysis.
(§2) The reaction was initiated by adding 20 μL of 3.2 mM peptide substrate (Suc-Ala-Ala-cis-Pro-Phe-pNA) in LiCl/TFE solution with rapid inversion. […] The final concentration of LiCl in the assay was 20 mM; TFE was present at a concentration of 4% (v/v). Absorbance readings were collected every 1 s by spectrophotometer. The inhibition assays of compounds were performed in the same manner as mentioned above. A 5 μL aliquot of the compounds in DMSO was added to the cyclophilin solution in the assay buffer. The assay was started by the addition of the substrate. Cyclosporine A was used as control in all measurement. The percentage inhibition of cyclophilin PPiase activity were calculated from slopes and values obtained represent an average of at least two independent measurements.

Cyclophilin A (CypA) = Cyclophilin A (CypA) (Homo sapiens (Human), UniProt P62937); assay: Cyclophilin PPIase enzymatic assay (chymotrypsin coupled), CypA; assay type: biochemical
Protocol: as §1, §2

[1] = activity test at 100 μM on CypA, read-out: Inhibition (%)
[2] = activity test at 100 μM on CypA

Sequence of Cyclophilin A (CypA) (P62937 whole entry): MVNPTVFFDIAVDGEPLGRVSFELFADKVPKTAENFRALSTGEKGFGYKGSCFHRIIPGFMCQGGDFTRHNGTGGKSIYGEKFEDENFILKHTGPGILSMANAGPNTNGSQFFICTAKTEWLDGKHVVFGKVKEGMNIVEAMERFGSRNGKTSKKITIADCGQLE
Sequence of Cyclophilin B (CypB) (P23284 34-216): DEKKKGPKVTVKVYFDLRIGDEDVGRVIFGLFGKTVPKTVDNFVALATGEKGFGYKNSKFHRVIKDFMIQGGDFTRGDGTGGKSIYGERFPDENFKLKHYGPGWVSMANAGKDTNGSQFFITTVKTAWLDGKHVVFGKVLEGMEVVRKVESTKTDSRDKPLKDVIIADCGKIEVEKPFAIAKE

Row | Molecule | Inhibition (%) (Cyclophilin B (CypB)) | inhibition at 100 µM (Cyclophilin B (CypB)) | also measured
1 | 2-(3-(4-aminobenzyl)ureido)-N-2-phenyl-ethyl-N-methylacetamide [Compound F551] | 20.8% | – | –
2 | CCOC(=O)CNC(=O)NCc1cccc2ccccc12 [Compound F490, ethyl 2-(3-((napht-1-yl)methyl)ureido)acetate] | 33.1% | – | –
3 | CCOC(=O)CNC(=O)NCc1ccc(F)cc1 [Compound F513, ethyl 2-(3-(4-fluorobenzyl)ureido)acetate] | – | 23.3% | –
4 | CCOC(=O)CNC(=O)NCc1cccc(C(F)(F)F)c1 [Compound F514, ethyl 2-(3-(3-trifluoromethylbenzyl)ureido)acetate] | – | 19.5% | –
5 | CCOC(=O)CNC(=O)NCCNc1ccccc1 [Compound F515, ethyl 2-(3-(2-(phenylamino)ethyl)ureido)acetate] | – | 18.2% | –
6 | CCOC(=O)CNC(=O)NCCc1ccc(O)cc1 [Compound F517, ethyl 2-(3-(4-hydroxyphenylethyl)ureido)acetate] | – | 20% | –
7 | CCOC(=O)CNC(=O)NCc1cc(Cl)cc(Cl)c1 [Compound F520, ethyl 2-(3-(3,5-dichlorobenzyl)ureido)acetate] | – | 18.9% | –
8 | CCOC(=O)CNC(=O)NCc1cccc(-c2ncccn2)c1 [Compound F524] | 15.4% | – | –
9 | CCOC(=O)CNC(=O)NCc1cccc2c1OCCO2 [Compound F525, ethyl 2-(3-((2,3-dihydrobenzo[b][1,4]dioxin-5-yl)methyl)ureido)acetate] | – | 21.6% | –
10 | CCOC(=O)CNC(=O)NCc1cc(C)on1 [Compound F526, ethyl 2-(3-((5-methylisoxazol-3-yl)methyl)ureido)acetate] | – | 21.2% | –
11 | CCOC(=O)CNC(=O)NCc1ccccc1-c1ccco1 [Compound F528] | 38.9% | – | –
12 | CCOC(=O)CNC(=O)NCc1ccc(N)nc1 [Compound F536, ethyl 2-(3-((6-aminopyridin-3-yl)methyl)ureido)acetate] | – | 47.6% | –
13 | Nc1ccc(CNC(=O)NCC(=O)N2CCCC2)cc1 [Compound F537, 1-(4-aminobenzyl)-3-(2-pyrrolidin-1-yl-2-oxoethyl)urea] | – | 24.5% | inhibition at 100 µM (Cyclophilin A (CypA)): 33.4%
14 | CCOC(=O)CNC(=O)NCc1nc2ccccc2[nH]1 [Compound F538, ethyl 2-(3-((1H-benzo[d]imidazol-2-yl)methyl)ureido)acetate] | – | – | inhibition at 100 µM (Cyclophilin A (CypA); [1]): 15.5%
15 | Nc1ccc(CNC(=O)NCC(=O)N2CCCC(O)C2)cc1 (stereo not shown) [Compound F540, 1-(4-aminobenzyl)-3-(2-(3-hydroxy-piperidin-1-yl)-2-oxoethyl)urea] | – | – | inhibition at 100 µM (Cyclophilin A (CypA); [1]): 32.6%
16 | Nc1ccc(CNC(=O)NCC(=O)N2CCCCC2C(=O)N2CCCC2)cc1 (stereo not shown) [Compound F542] | 58.5% | – | Inhibition (%) (Cyclophilin A (CypA); [2]): 60.1%; IC50 (Cyclophilin B (CypB)): 36.6 µM
17 | Nc1ccc(CNC(=O)NCC(=O)N2CCCCC2)cc1 [Compound F543, 1-(4-aminobenzyl)-3-(2-oxo-2-(piperin-1-yl)ethyl)urea] | 37.5% | – | Inhibition (%) (Cyclophilin A (CypA); [2]): 27.7%
18 | Nc1ccc(CNC(=O)NCC(=O)N2CCOCC2)cc1 [Compound F544, 1-(4-aminobenzyl)-3-(2-morpholino-2-oxoethyl)urea] | – | 26% | inhibition at 100 µM (Cyclophilin A (CypA); [1]): 12.2%
19 | CCOC(=O)C1CCCN(C(=O)CNC(=O)NCc2ccc(N)cc2)C1 (stereo not shown) [Compound F545, ethyl 1-(2-(3-(4-aminobenzyl)ureido)acetyl)piperidine-3-carboxylate] | – | 65.7% | inhibition at 100 µM (Cyclophilin A (CypA); [1]): 49.2%; IC50 (Cyclophilin B (CypB)): 75.1 µM
20 | Nc1ccc(CNC(=O)NCC(=O)NCCc2ccccc2)cc1 [Compound F547, 2-(3-(4-aminobenzyl)ureido)-N-2-phenyl-ethylacetamide] | – | 15.2% | inhibition at 100 µM (Cyclophilin A (CypA); [1]): 22.5%
21 | COC(=O)[C@H]1CCCN1C(=O)CNC(=O)NCc1ccc(N)cc1 [Compound F558, (R)-methyl 1-(2-(3-(4-aminobenzyl)ureido)acetyl)pyrrolidine-2-carboxylate] | – | 25.9% | –
22 | Nc1ccc(CNC(=O)NCC(=O)NCc2cccc(CN3CCOCC3)c2)cc1 [Compound F559] | 21.9% | – | –

Row | Molecule | Inhibition (%) (Cyclophilin B (CypB)) | inhibition at 100 µM (Cyclophilin B (CypB)) | also measured
23 | Nc1ccc(CNC(=O)NCC(=O)N2CCC(O)CC2)cc1 [Compound F561, 1-(4-aminobenzyl)-3-(2-(4-hydroxy-piperidin-1-yl)-2-oxoethyl)urea] | – | 15.1% | –
24 | Nc1ccc(CNC(=O)NCC(=O)NCc2cccc(-n3cncn3)c2)cc1 [Compound F562, 2-(3-(4-aminobenzyl)ureido)-N-(3-(1H,1,2,4-triazol-1-yl)benzyl)acetamide] | 28.0% | – | –
25 | COc1cccc(CNC(=O)CNC(=O)NCc2ccc(N)cc2)c1 [Compound F563, 2-(3-(4-aminobenzyl)ureido)-N-3-methoxybenzylacetamide] | – | 16.4% | –
26 | CCOC(=O)CNC(=O)NCc1c(F)cccc1NC(C)=O [Compound F565, ethyl 2-(3-(2-acetamido-6-fluorobenzyl)ureido)acetate] | – | 34.5% | –
27 | CCOC(=O)CNC(=S)NCc1ccc(N)nc1 [Compound F569, ethyl 2-(3-((6-aminopyridin-3-yl)methyl)thioureido)acetate] | – | 17.1% | –
28 | CCOC(=O)CNC(=O)NCc1ccc(O)cc1O [Compound F572, ethyl 2-(3-(2,4-dihydroxybenzyl)ureido)acetate] | – | 27.6% | –
29 | CCOC(=O)CNC(=O)NCc1ccc(O)cc1 [Compound F576, ethyl 2-(3-(4-hydroxybenzyl)ureido)acetate] | – | 18.4% | –
30 | CCOC(=O)CNC(=O)NCc1ccc(N)c2ccccc12 [Compound F577, ethyl 2-(3-((4-aminonapht-1-yl)methyl)ureido)acetate] | 47.3% | – | –
31 | Nc1ccc(CNC(=O)NCC(=O)N2CCCO2)cn1 [Compound F585, 1-((6-aminopyridin-3-yl)methyl-3-(2-isoxazolidin-2-yl)-2-oxoethyl)urea] | 35.0% | – | –
32 | Nc1ccc(CNC(=O)NCC(=O)N2CCCC2c2ccccn2)cn1 (stereo not shown) [Compound F586, 1-((6-aminopyridin-3-yl)methyl)-3-(2-oxo-2-(2-(pyridin-2-yl)pyrrolidin-1-yl)ethyl)urea] | – | 38.4% | –
33 | COc1ccccc1C1CCCN1C(=O)CNC(=O)NCc1ccc(N)nc1 (stereo not shown) [Compound F587, 1-((6-aminopyridin-3-yl)methyl)-3-(2-(2-(2-methoxyphenyl)pyrrolidin-1-yl)-2-oxoethyl)urea] | – | 99% | IC50 (Cyclophilin B (CypB)): 5.2 µM
34 | CC(C)N(Cc1cccc2c1OCO2)C(=O)CNC(=O)NCc1ccc(N)nc1 [Compound F590, 1-(((6-aminopyridin-3-yl)methyl)ureido)-N-(benzo[d][1,3]dioxol-4-ylmethyl)-N-isopropylacetamide] | 18.2% | – | –
35 | CSc1cccc(CN(C(=O)CNC(=O)NCc2ccc(N)nc2)C(C)C)c1 [Compound F592, 2-(3-((6-aminopyridin-3-yl)methyl)ureido)-N-isopropyl-N-(3-(methylthio)benzyl)acetamide] | – | 18.9% | –
36 | Cc1noc(C2CCCN2C(=O)CNC(=O)NCc2ccc(N)nc2)n1 (stereo not shown) [Compound F593, 1-((6-aminopyridin-3-yl)methyl)-3-(2-(2-(3-methyl-1,2,4-oxadiazol-5-yl)pyrrolidin-1-yl)-2-oxoethyl)urea] | – | 23.4% | –
37 | Nc1ccc(CNC(=O)NCC(=O)N2CCOCC2)cn1 [Compound F594] | 37.0% | – | –
38 | CN(C(=O)CNC(=O)NCc1ccc(N)nc1)C1CCCCC1 [Compound F595, 2-(3-((6-aminopyridin-3-yl)methyl)ureido)-N-cyclohexyl-N-methylacetamide] | – | 29.1% | –
39 | Nc1ccc(CNC(=O)Nc2cnc3sccn3c2=O)cn1 [Compound F596, 1-((6-aminopyridin-3-yl)methyl)-3-(5-oxo-5H-thiazolo[3,2-c]pyrimidin-6-yl)urea] | 19.8% | – | –
40 | CN(C(=O)CNC(=O)NCc1ccc(N)nc1)c1ccc(F)cc1 [Compound F597, 2-(3-((6-aminopyridin-3-yl)methyl)ureido)-N-(4-fluorophenyl)-N-methylacetamide] | – | 46.3% | –
41 | CCN(OCc1ccccc1)C(=O)CNC(=O)NCc1ccc(N)nc1 [Compound F599, 2-(3-((6-aminopyridin-3-yl)methyl)ureido)-N-(benzyloxy)-N-ethylacetamide] | – | 71.8% | –
42 | Nc1ccc(CNC(=O)Nn2cnc3ccccc3c2=O)cc1 [Compound F600, 1-(4-aminobenzyl)-3-(4-oxoquinazolin-3(4H)-yl)urea] | – | 65.8% | –
43 | (S)-1-((6-aminopyridin-3-yl)methyl)-3-(2-oxo-2-(2-(pyridin-3-yl)pyrrolidin-1-yl)ethyl)urea [Compound F588] | 23.2% | – | –
